Tested on: histamine and its metabolites in the tissue of people with lipedema
Assay: Metabolomic analysis (IM-MS) of subcutaneous adipose tissue biopsies from lipedema patients treated with sodium cromoglycate
Assay type: in vivo, human
Conditions: for Histamine levels in tissue samples after treatment (in words): three lipedema patients treated for two weeks
Experimental: This experiment study involved patients who were diagnosed with lipedema. The study began with collection of a sample from each subject in the study, and three patients received a treatment regimen consisting of twice daily oral doses of sodium cromoglycate (500 mg) for 15 days, as well as a topical cream containing 4% sodium cromoglycate. The effects of this treatment on the patients' symptoms and mast cell activation were evaluated as part of the study.
Thereafter, metabolomic analysis was performed by mass spectrometry. Specifically, the ion-mobility mass spectrometry (IM-MS) technique combined ion mobility with mass spectrometry, allowing different compounds to be characterized together with a specific m/z ratio. SACI-CIMS was used as ionization technique. Data were acquired through the SANIST platform. Values under the Limit of Quantification (LoQ=1 pg/mg) were considered as 0 pg/mg.
Thereafter, a target histological and metabolomic examination was performed. Specifically, biopsies of subcutaneous adipose tissue were taken from a total of six patients with lipedema and four healthy individuals.

[1] = lipedema tissue of patients treated with sodium cromoglycate (n = 3), 500 mg oral twice daily for 15 days plus 4% topical cream
[2] = lipedema tissue of patients treated with sodium cromoglycate (n = 3), 500 mg oral twice daily for 15 days plus 4% topical cream, values under LoQ (1 pg/mg) given as 0

Molecule `O=C(O)c1cc(=O)c2c(OCC(O)COc3cccc4oc(C(=O)O)cc(=O)c34)cccc2o1` [sodium cromoglycate, Sodium cromoglycate] has a 1-Methylhystamine tissue level [1] of 13.67 ± 10.02 pg/mg, a Histidine tissue level [1] of 20.67 ± 17.00 pg/mg and a Histamine tissue level [2] of 0 pg/mg. For the same molecule, the “Imidazole Acetaldehyde tissue level” value [2] was 0 pg/mg, the “Histamine levels in tissue samples after treatment (in words)” value was “effectively reduce histamine levels” and the “Histamine levels in tissue samples after treatment (in words)” value (listed as disodium cromoglycate) was “normal levels of histamine”.
